“And” between values parts separate entries of the source, which are not always exact repeats. Identical values can stand only once. Like-named read-outs stand apart in the source and are kept apart here.
Experiments:
[1] = Distribution of inhibitors in plasma and brain after intravenous dosing of mice; format: in vivo; details: 1 mg/kg IV; for Plasma Concentrations, mean: n = 5; for concentration at 1 h / concentration at 0.15 h / concentration at 0.5 h: male, CD1, mouse, iv, 1 mg/kg
Procedure: Distribution of inhibitors in plasma and brain tissue was examined after intravenous dosing of mice with inhibitors. The experimental conditions were as follows: Mice: male CD1 about 8 weeks old; body weight: about 25 g; No. of groups: one; No. of animals per group: 5; vehicle for IV dosing: DMSO; dosage: 1 mg/kg.
Plasma samples were separated by centrifugation in presence of K2-EDTA as anticoagulant. Brain tissue were homogenized in phosphate buffer saline and processed for bioanalysis as per standard practice. Samples were analyzed by a discovery grade bio-analytical method using LC-MS/MS method.

[2] = Microsomal stability (Clint assay), rat liver microsome; format: in vitro ADME; details: male, Sprague-Dawley, liver microsomes, pH 7.4, 1 μM compound, 0.5 mg/mL protein, 1 mM NADPH, 37° C.; for microsomal CLint at 1 μM: read-out: Clearance CL int (rat microsomes); for half-life at 1 μM: read-out: Rat microsomes T1/2
Procedure: (§1) Microsomal stability measurements were carried out by Clint assay. Test compounds were incubated with liver microsome, and metabolic stability was determined over 45 minutes. The experimental conditions were as follows. […]

[3] = Microsomal stability (Clint assay), human liver microsome; format: in vitro ADME; details: both sexes, liver microsomes, pH 7.4, 1 μM compound, 0.5 mg/mL protein, 1 mM NADPH, 37° C.; for microsomal CLint at 1 μM: read-out: Clearance CL int (human microsomes); for half-life at 1 μM: read-out: Human microsomes T1/2
Procedure: as §1

[4] = tested on: wild type α-synuclein overexpressing BE(2)-M17 cells (WT21); assay: Neuroprotection in wild type α-synuclein overexpressing BE(2)-M17 cells (WT21); format: cell-based, human; details: Alamar Blue assay
Procedure: (§2) BE(2)-M17 human neuroblastoma cells engineered to stably express either wild type or A53T mutant α-synuclein, PC12 rat pheochromocytoma, or SH-SY5Y human neuroblastoma cells were cultured in 96-well cell culture dishes in a humidified incubator at 37° C., 5% CO2. The growth medium was supplemented with 0.1% dimethyl sulfoxide (vehicle control) or compounds dissolved in dimethyl sulfoxide. Following 2 hours of exposure to compounds, the growth medium was further supplemented with 6-hydroxydopamine (or 0.1% ascorbic acid vehicle control) and incubated for an additional 24-48 hours.
(§3) Cell viability was measured by reduction of WST-8 or AlamarBlue® and the relative protection from 6-hydroxydopamine was measured by calculating the percentage of viable cells normalized to 6-hydroxydopamine treated cells in the absence of compound. See FIGS. 1A and 1B for neuroprotection observed in PC12 cells treated with dual acting FKBP12 and FKBP52 inhibitory exemplary compounds CAP01687 (FIG. 1A) and CAP01693 (FIG. 1B) measured using WST-8 assay. Specifically, FIGS. 1A and 1B, show relative percent protection from 6-OHDA, the vehicle control being set to 0% relative protection. […] Neuroprotection was also observed in A53T mutant α-synuclein overexpressing BE(2)-M17 cells (M3.2) treated with CAP01687 (FIG. 3B). The bars in FIGS. 3A and 3B depict relative percent fluorescence, which is proportional to cell viability, with the vehicle control being 100%.]
BE(2)-M17 human neuroblastoma cells engineered to stably express either wild type or A53T mutant α-synuclein, PC12 rat pheochromocytoma cells, or SH-SY5Y human neuroblastoma cells were cultured in 96-well cell culture dishes in a humidified incubator at 37° C. and 5% CO2. The growth medium was supplemented with 0.1% dimethyl sulfoxide (vehicle control) or compounds dissolved in dimethyl sulfoxide. […]
Cell viability was measured by reduction of WST-8 or alamarBlue® and the relative protection from 6-hydroxydopamine was measured by calculating the percentage of viable cells normalized to 6-hydroxydopamine treated cells in the absence of compound.

[5] = tested on: PC12 rat pheochromocytoma cells; assay: Neuroprotection from 6-hydroxydopamine in PC12 cells (WST-8); format: cell-based; details: WST-8 assay, FIG. 1
Procedure: as §2
Cell viability was measured by reduction of WST-8 or AlamarBlue® and the relative protection from 6-hydroxydopamine was measured by calculating the percentage of viable cells normalized to 6-hydroxydopamine treated cells in the absence of compound. See FIGS. 1A and 1B for neuroprotection observed in PC12 cells treated with dual acting FKBP12 and FKBP52 inhibitory exemplary compounds CAP01687 (FIG. 1A) and CAP01693 (FIG. 1B) measured using WST-8 assay. Specifically, FIGS. 1A and 1B, show relative percent protection from 6-OHDA, the vehicle control being set to 0% relative protection. […] The bars in FIGS. 3A and 3B depict relative percent fluorescence, which is proportional to cell viability, with the vehicle control being 100%.] […]

[6] = tested on: A53T mutant α-synuclein overexpressing BE(2)-M17 cells (M3.2); assay: Neuroprotection in A53T mutant α-synuclein overexpressing BE(2)-M17 cells (M3.2); format: cell-based, human; details: for Neuroprotection (cell viability): A53T mutant α-synuclein cells (M3.2), Alamar Blue assay
Procedure: as §2
as §3, with “See” for “Cell viability was measured by reduction of WST-8 or AlamarBlue® and the relative protection from 6-hydroxydopamine was measured by calculating the percentage of viable cells normalized to 6-hydroxydopamine treated cells in the absence of compound. See”
as §2, with “pheochromocytoma cells,” for “pheochromocytoma,”, “C. and” for “C.,”, “(OHDA) or” for “(or”, “hours. […]” for “hours.”

PC12 cells = assay: Neurite outgrowth; format: cell-based, rat; details: light microscopy, bar graph
Procedure: PC12 rat pheochromocytoma or SH-SY5Y human neuroblastoma cells were grown on glass coverslips in a 24-well cell culture dish in a humidified incubator at 37° C., 5% CO2. After 24 hours, the cells were washed with phosphate buffered saline and the serum concentration of the growth medium was reduced to 0.2%. After 16 hours in the reduced serum medium, 0.1% dimethyl sulfoxide (vehicle control) or compounds dissolved in dimethyl sulfoxide were added to the growth medium. Following 2 hours of exposure to compounds, the growth medium was supplemented with 6-hydroxydopamine (or 0.1% ascorbic acid vehicle control), nerve growth factor (or phosphate-buffered saline vehicle control), in addition to 0.1% dimethyl sulfoxide (vehicle control) or compounds dissolved in dimethyl sulfoxide. […] Phase contrast images were captured at 20× magnification and the percentage of cells with neurites longer than 20 μm were scored for approximately 200 cells in each condition using ImageJ software.
PC12 rat pheochromocytoma or SH-SY5Y human neuroblastoma cells were grown on glass coverslips in a 24-well cell culture dish in a humidified incubator at 37° C. and 5% CO2. […] Phase contrast images were captured at 20× magnification and the percentage of cells with neurites longer than 20 μm were scored for approximately 200 cells in each condition using ImageJ software.

WT21 cells = assay: Cytotoxicity to WT21 cells (MTS tetrazolium dye reduction); format: cell-based, human; details: concentrations under 50 μM
[7] = brain, 1 h, n = 5, read-out: Brain concentrations, mean
[8] = plasma, 0.15 h, n = 5, read-out: Plasma Concentrations, mean
[9] = plasma, 0.5 h, n = 5, read-out: Plasma Concentrations, mean
[10] = plasma, 0.5 h, read-out: Plasma Concentrations, individual animals
[11] = plasma, 1 h, n = 5, read-out: Plasma Concentrations, mean
[12] = plasma, 1 h, read-out: Plasma Concentrations, individual animals

## Cc1ccc(Cn2c(/C=C/c3ccc(F)cc3)nc3ccccc32)cc1 [CAP01551, 2-[2-(4-fluorophenyl)vinyl]-1-(4-methylbenzyl)-1H-benzimidazole]
[1]; 0.15 h
  Plasma Concentrations, individual animals: 217.36 ng/mL and 295.33 ng/mL and 122.46 ng/mL and 203.22 ng/mL and 134.60 ng/mL
  Plasma Concentrations, mean: 194.59 ng/mL
[1]; 0.5 h
  Plasma Concentrations, individual animals: 88.98 ng/mL and 46.31 ng/mL and 62.88 ng/mL and 56.74 ng/mL
  Plasma Concentrations, mean: 65.36 ng/mL
[1]; 1 h
  Brain concentrations, individual animals: 81.88 ng/G and 57.91 ng/G and 63.84 ng/G and 74.50 ng/G
  Plasma Concentrations, individual animals: 52.86 ng/mL (2×) and 27.45 ng/mL (2×) and 27.24 ng/mL (2×) and 27.74 ng/mL (2×) and 33.70 ng/mL
  Plasma Concentrations, mean: 33.80 ng/mL
[1]; [7]
  concentration at 1 h: 70.4 ng/g
[1]; brain, 1 h, read-out: Brain concentrations, individual animals
  concentration at 1 h: 73.8 ng/g
[1]; [8]
  concentration at 0.15 h: 195 ± 69.9 ng/mL
[1]; [9]
  concentration at 0.5 h: 65.4 ± 16.2 ng/mL
[1]; [10]
  concentration at 0.5 h: 71.9 ng/mL
[1]; [11]
  concentration at 1 h: 33.8 ± 11 ng/mL
[1]; [12]
  concentration at 1 h: 33.7 ng/mL
[2]
  microsomal CLint at 1 μM: 202 µL/min/mg
  half-life at 1 μM: 6.85 min
[3]
  microsomal CLint at 1 μM: 52.4 µL/min/mg
  half-life at 1 μM: 26.4 min
[4]
  Neuroprotection (cell viability): neuroprotection

## O=C(N[C@@H](Cc1ccc(Cl)cc1)C(=O)NCCCc1ccccc1)c1ccc2cc(F)ccc2c1 [CAP01687]
[5]
  Neuroprotection (relative percent protection from 6-OHDA): neuroprotection
[6]
  Neuroprotection (cell viability): neuroprotection
PC12 cells
  Neurite outgrowth (percentage of cells with neurites longer than 20 μm): promotion of neurite outgrowth
[4]
  Neuroprotection (cell viability): neuroprotection

## CC(C)CCn1c(/C=C/c2ccc(F)cc2)nc2ccccc21 [CAP01559]
[6]
  Neuroprotection (cell viability): neuroprotection
[4]
  Neuroprotection (cell viability): neuroprotection

## COc1ccc(/N=N/c2nc3ccccc3n2C)c2ccccc12 [CAP01324]
[6]; A53T mutant cells, 100 nM, MTS tetrazolium dye
  Neuroprotection (relative change in absorbance, MTS): neuroprotection
WT21 cells
  Cytotoxicity (relative change in absorbance, MTS): not cytotoxic

## O=C(N[C@@H](Cc1ccc(Cl)cc1)C(=O)NCCCc1cccnc1)c1ccc2cc(F)ccc2c1 [CAP01693, (2S)-3-(4-chlorophenyl)-2-[(6-fluoronaphthalen-2-yl)-formamido]-N-[3-(pyridine-3-yl)propyl]propanamide]
[5]
  Neuroprotection (relative percent protection from 6-OHDA): neuroprotection

## O=C(N[C@H](C(=O)NCCCc1ccccc1)c1ccccc1)c1ccc2cc(F)ccc2c1 [CAP01723, (2S)-2-[(6-fluoronaphthalen-2-yl)formamido]-2-phenyl-N-(3-phenylpropyl)acetamide]
[1]; 0.15 h
  Plasma Concentrations, individual animals: 258.2 ng/mL and 225.3 ng/mL and 225.4 ng/mL and 244.2 ng/mL
  Plasma Concentrations, mean: 239.7 ng/mL
[1]; 0.5 h
  Plasma Concentrations, individual animals: 106.1 ng/mL and 97.6 ng/mL and 102.6 ng/mL and 93.2 ng/mL
  Plasma Concentrations, mean: 100.5 ng/mL
[1]; 1 h
  Brain concentrations, individual animals: 17.2 ng/G and 14.6 ng/G and 31.9 ng/G and 9.5 ng/G and 22.3 ng/G
  Plasma Concentrations, individual animals: 41.1 ng/mL (2×) and 58.7 ng/mL (2×) and 53.5 ng/mL (2×) and 45.4 ng/mL (2×) and 50.3 ng/mL
  Plasma Concentrations, mean: 49.8 ng/mL
[1]; [7]
  concentration at 1 h: 19.1 ng/g
[1]; [8]
  concentration at 0.15 h: 240 ± 14.2 ng/mL
[1]; plasma, 0.15 h, read-out: Plasma Concentrations, individual animals
  concentration at 0.15 h: 246 ng/mL
[1]; [9]
  concentration at 0.5 h: 100 ± 5.1 ng/mL
[1]; [10]
  concentration at 0.5 h: 103 ng/mL
[1]; [11]
  concentration at 1 h: 49.8 ± 6.8 ng/mL
[1]; [12]
  concentration at 1 h: 50.3 ng/mL
[2]
  microsomal CLint at 1 μM: 130 µL/min/mg
  half-life at 1 μM: 10.7 min
[3]
  microsomal CLint at 1 μM: 167 µL/min/mg
  half-life at 1 μM: 8.29 min

## CCn1c(/C=C/c2ccc(Cl)cc2)nc2ccccc21 [CAP01510]
PC12 cells
  Neurite outgrowth (percentage of cells with neurites longer than 20 μm): dose dependent promotion of neurite outgrowth
